{"source": "patent US20060166900A1", "about": "“Salt of morphine-6-glucuronide” (CeNeS Limited, priority 2002, published 2006)", "assay_type_in_all_cases": "physicochemical", "key": {"[1]": {"test": "Colour of solution by visible spectrophotometry on storage (Example 3)", "settings": "5% w/v solution in water", "procedure": "Colour of solution by UV spectrophotometry.\n(§1) Each test material was stored between 2-8*C prior to placing on stability. Each material was sub-divided into 900 mg aliquots, transferred to brown opaque HDPE plastic bottles and flushed with Argon prior to sealing. Sufficient samples were provided for each time point as well as spares for each storage condition. The samples were placed in appropriate incubators previously commissioned at storage conditions 25° C./60% RH, 40° C./75% RH and 60° C.\nColour by Visible Spectrophotometry\nA 5% w/v solution of test material was prepared in water and the absorbance measured at 420 nm in a 1 cm silica cell using a Unicam UV4 Visible/UV spectrophotometer."}, "[2]": {"test": "Visual appearance on storage (Example 3)", "procedure": "as §1\nThe samples were stored for analysis according to the following table: […]"}, "[3]": {"test": "Water content by Karl Fisher analysis on storage (Example 3)", "procedure": "Water content (% w/w) by Karl Fisher analysis\nas §1\nWater Content by Karl Fisher Analysis\nWater content was determined in duplicate on an aliquot of equilibrated material (approximately 100 mg) using a Tritrino 720 KFS Titrator."}, "[4]": {"test": "Stability indicating HPLC assay and related substances on storage (Example 3)", "procedure": "Assay (% w/w) and related substances determination\nas §1\nTesting Procedures Test for Identity Content and Impurities\nTesting was performed in duplicate (2×25 mg) in accordance with a stability indicating HPLC assay method. The assay results were reported as M6G as is, M6G as the anhydrous, solvent free material and the anhydrous solvent free material corrected for the salt form using the relevant conversion factor."}}}
{"smiles": "CN1CCC23c4c5ccc(O)c4OC2C(OC2OC(C(=O)O)C(O)C(O)C2O)C=CC3C1C5.CN1CCC23c4c5ccc(O)c4OC2C(OC2OC(C(=O)O)C(O)C(O)C2O)C=CC3C1C5.O=C(O)C=CC(=O)O", "note": "(stereo not drawn) [Morphine-6-glucuronide fumarate]", "values": [{"measurement": "Colour", "setting": "[1]; 1 month, 25° C./60% RH", "value": 0.034, "unit": "Abs@420 nm"}, {"measurement": "Colour", "setting": "[1]; 1 month, 40° C./75% RH", "value": 0.264, "unit": "Abs@420 nm"}, {"measurement": "Colour", "setting": "[1]; 1 month, 60° C.", "value": 0.794, "unit": "Abs@420 nm"}, {"measurement": "Colour", "setting": "[1]; 3 months, 25° C./60% RH", "value": 0.141, "unit": "Abs@420 nm"}, {"measurement": "Colour", "setting": "[1]; 3 months, 40° C./75% RH", "value": 1.008, "unit": "Abs@420 nm"}, {"measurement": "Colour", "setting": "[1]; Initial", "value": 0.016, "unit": "Abs@420 nm"}, {"measurement": "Appearance", "setting": "[2]; 1 month, 25° C./60% RH", "value": "White crystalline powder"}, {"measurement": "Appearance", "setting": "[2]; 1 month, 40° C./75% RH", "value": "Pale yellow crystalline powder"}, {"measurement": "Appearance", "setting": "[2]; 1 month, 60° C.", "value": "Yellow crystalline powder"}, {"measurement": "Appearance", "setting": "[2]; 3 months, 25° C./60% RH", "value": "Pale yellow crystalline powder"}, {"measurement": "Appearance", "setting": "[2]; 3 months, 40° C./75% RH", "value": "Yellow crystalline powder"}, {"measurement": "Appearance", "setting": "[2]; Initial", "value": "White crystalline powder"}, {"measurement": "Moisture", "setting": "[3]; 1 month, 25° C./60% RH", "value": 7.26, "unit": "% w/w"}, {"measurement": "Moisture", "setting": "[3]; 1 month, 40° C./75% RH", "value": 7.94, "unit": "% w/w"}, {"measurement": "Moisture", "setting": "[3]; 1 month, 60° C.", "value": 5.98, "unit": "% w/w"}, {"measurement": "Moisture", "setting": "[3]; 3 months, 25° C./60% RH", "value": 8.00, "unit": "% w/w"}, {"measurement": "Moisture", "setting": "[3]; 3 months, 40° C./75% RH", "value": 10.89, "unit": "% w/w"}, {"measurement": "Moisture", "setting": "[3]; Initial", "value": 6.80, "unit": "% w/w"}, {"measurement": "Known Related Substances HN33177", "setting": "[4]; 1 month, 25° C./60% RH", "value": 0.80, "unit": "%"}, {"measurement": "Known Related Substances HN75083", "setting": "[4]; 1 month, 25° C./60% RH", "value": 0.03, "unit": "%"}, {"measurement": "M6G Assay, Anhydrous basis", "setting": "[4]; 1 month, 25° C./60% RH", "value": 88.23, "unit": "% w/w"}, {"measurement": "M6G Assay, As is basis", "setting": "[4]; 1 month, 25° C./60% RH", "value": 81.96, "unit": "% w/w"}, {"measurement": "M6G Assay, Corrected for the salt form", "setting": "[4]; 1 month, 25° C./60% RH", "value": 99.32, "unit": "% w/w"}, {"measurement": "Total Known", "setting": "[4]; 1 month, 25° C./60% RH", "value": 0.83, "unit": "%"}, {"measurement": "Total Related Substances", "setting": "[4]; 1 month, 25° C./60% RH", "value": 0.91, "unit": "%"}, {"measurement": "Total Unknown", "setting": "[4]; 1 month, 25° C./60% RH", "value": 0.08, "unit": "%"}, {"measurement": "Known Related Substances HN33177", "setting": "[4]; 1 month, 40° C./75% RH", "value": 0.70, "unit": "%"}, {"measurement": "Known Related Substances HN67003", "setting": "[4]; 1 month, 40° C./75% RH", "value": 0.58, "unit": "%"}, {"measurement": "Known Related Substances HN75076", "setting": "[4]; 1 month, 40° C./75% RH", "value": 0.03, "unit": "%"}, {"measurement": "Known Related Substances HN75083", "setting": "[4]; 1 month, 40° C./75% RH", "value": 0.02, "unit": "%"}, {"measurement": "Known Related Substances Morphine", "setting": "[4]; 1 month, 40° C./75% RH", "value": 0.10, "unit": "%"}, {"measurement": "M6G Assay, Anhydrous basis", "setting": "[4]; 1 month, 40° C./75% RH", "value": 84.17, "unit": "% w/w"}, {"measurement": "M6G Assay, As is basis", "setting": "[4]; 1 month, 40° C./75% RH", "value": 77.62, "unit": "% w/w"}, {"measurement": "M6G Assay, Corrected for the salt form", "setting": "[4]; 1 month, 40° C./75% RH", "value": 94.76, "unit": "% w/w"}, {"measurement": "Total Known", "setting": "[4]; 1 month, 40° C./75% RH", "value": 1.43, "unit": "%"}, {"measurement": "Total Related Substances", "setting": "[4]; 1 month, 40° C./75% RH", "value": 2.60, "unit": "%"}, {"measurement": "Total Unknown", "setting": "[4]; 1 month, 40° C./75% RH", "value": 1.17, "unit": "%"}, {"measurement": "Known Related Substances HN33177", "setting": "[4]; 1 month, 60° C.", "value": 0.62, "unit": "%"}, {"measurement": "Known Related Substances HN67003", "setting": "[4]; 1 month, 60° C.", "value": 0.97, "unit": "%"}, {"measurement": "Known Related Substances HN75076", "setting": "[4]; 1 month, 60° C.", "value": 0.06, "unit": "%"}, {"measurement": "Known Related Substances HN75083", "setting": "[4]; 1 month, 60° C.", "value": 0.02, "unit": "%"}, {"measurement": "Known Related Substances Morphine", "setting": "[4]; 1 month, 60° C.", "value": 0.24, "unit": "%"}, {"measurement": "M6G Assay, Anhydrous basis", "setting": "[4]; 1 month, 60° C.", "value": 82.11, "unit": "% w/w"}, {"measurement": "M6G Assay, As is basis", "setting": "[4]; 1 month, 60° C.", "value": 77.33, "unit": "% w/w"}, {"measurement": "M6G Assay, Corrected for the salt form", "setting": "[4]; 1 month, 60° C.", "value": 92.44, "unit": "% w/w"}, {"measurement": "Total Known", "setting": "[4]; 1 month, 60° C.", "value": 1.91, "unit": "%"}, {"measurement": "Total Related Substances", "setting": "[4]; 1 month, 60° C.", "value": 3.85, "unit": "%"}, {"measurement": "Total Unknown", "setting": "[4]; 1 month, 60° C.", "value": 1.94, "unit": "%"}, {"measurement": "Known Related Substances HN33177", "setting": "[4]; 3 months, 25° C./60% RH", "value": 0.75, "unit": "%"}, {"measurement": "Known Related Substances HN67003", "setting": "[4]; 3 months, 25° C./60% RH", "value": 0.26, "unit": "%"}, {"measurement": "Known Related Substances HN75083", "setting": "[4]; 3 months, 25° C./60% RH", "value": 0.10, "unit": "%"}, {"measurement": "Known Related Substances Morphine", "setting": "[4]; 3 months, 25° C./60% RH", "value": 0.07, "unit": "%"}, {"measurement": "M6G Assay, Anhydrous basis", "setting": "[4]; 3 months, 25° C./60% RH", "value": 87.15, "unit": "% w/w"}, {"measurement": "M6G Assay, As is basis", "setting": "[4]; 3 months, 25° C./60% RH", "value": 81.20, "unit": "% w/w"}, {"measurement": "M6G Assay, Corrected for the salt form", "setting": "[4]; 3 months, 25° C./60% RH", "value": 98.11, "unit": "% w/w"}, {"measurement": "Total Known", "setting": "[4]; 3 months, 25° C./60% RH", "value": 1.18, "unit": "%"}, {"measurement": "Total Related Substances", "setting": "[4]; 3 months, 25° C./60% RH", "value": 1.90, "unit": "%"}, {"measurement": "Total Unknown", "setting": "[4]; 3 months, 25° C./60% RH", "value": 0.72, "unit": "%"}, {"measurement": "Known Related Substances HN33177", "setting": "[4]; 3 months, 40° C./75% RH", "value": 0.57, "unit": "%"}, {"measurement": "Known Related Substances HN67003", "setting": "[4]; 3 months, 40° C./75% RH", "value": 1.56, "unit": "%"}, {"measurement": "Known Related Substances HN75076", "setting": "[4]; 3 months, 40° C./75% RH", "value": 0.40, "unit": "%"}, {"measurement": "Known Related Substances Morphine", "setting": "[4]; 3 months, 40° C./75% RH", "value": 0.45, "unit": "%"}, {"measurement": "M6G Assay, Anhydrous basis", "setting": "[4]; 3 months, 40° C./75% RH", "value": 79.38, "unit": "% w/w"}, {"measurement": "M6G Assay, As is basis", "setting": "[4]; 3 months, 40° C./75% RH", "value": 71.64, "unit": "% w/w"}, {"measurement": "M6G Assay, Corrected for the salt form", "setting": "[4]; 3 months, 40° C./75% RH", "value": 89.37, "unit": "% w/w"}, {"measurement": "Total Known", "setting": "[4]; 3 months, 40° C./75% RH", "value": 2.98, "unit": "%"}, {"measurement": "Total Related Substances", "setting": "[4]; 3 months, 40° C./75% RH", "value": 9.07, "unit": "%"}, {"measurement": "Total Unknown", "setting": "[4]; 3 months, 40° C./75% RH", "value": 6.09, "unit": "%"}, {"measurement": "drop in assay compared to the initial values", "setting": "[4]; 3 months, 40° C./75% RH", "value": "around 10%"}, {"measurement": "Known Related Substances HN33177", "setting": "[4]; Initial", "value": 0.77, "unit": "%"}, {"measurement": "Known Related Substances HN67003", "setting": "[4]; Initial", "value": 0.04, "unit": "%"}, {"measurement": "Known Related Substances HN75083", "setting": "[4]; Initial", "value": 0.05, "unit": "%"}, {"measurement": "M6G Assay, Anhydrous basis", "setting": "[4]; Initial", "value": 89.44, "unit": "% w/w"}, {"measurement": "M6G Assay, As is basis", "setting": "[4]; Initial", "value": 84.11, "unit": "% w/w"}, {"measurement": "M6G Assay, Corrected for the salt form", "setting": "[4]; Initial", "value": 100.71, "unit": "% w/w"}, {"measurement": "Total Known", "setting": "[4]; Initial", "value": 0.86, "unit": "%"}, {"measurement": "Total Related Substances", "setting": "[4]; Initial", "value": 0.95, "unit": "%"}, {"measurement": "Total Unknown", "setting": "[4]; Initial", "value": 0.09, "unit": "%"}]}
